Results from patent publication US6136810A, “Pyrido[2,3-D]pyrimidine derivatives and pharmaceutical compositions thereof” (priority 1995, dated 2000).
Read-outs that look alike come from different tables or passages of the source.

Key:
[1] = target: type IV phosphodiesterase; assay: Type IV phosphodiesterase inhibition activity measuring test (in vitro); type: biochemical; settings: human granulocyte type IV PDE, 1 μM cAMP, 30° C.
Method: The following assay was used for the evaluation of the capability of the compounds of the present invention to inhibit type IV phosphodiesterase.
1) Physiological saline (200 ml) supplemented with dextran (3%) was added to 500 ml of heparinized peripheral blood of a healthy person and incubated at 37° C. for 40 minutes to effect precipitation of erythrocytes. The supernatant after precipitation of erythrocytes was recovered and centrifuged once, and the resulting precipitate was suspended in buffer A (140 mM NaCl, 5 mM KCl, 5 mM glucose and 10 mM HEPES, pH 7.4), overlaid on a solution for density gradient centrifugation use (Ficoll solution) and then centrifuged at room temperature for 40 minutes at 450×g, thereby separating monocyte fraction and granulocyte fraction. The granulocyte fraction was washed once with buffer B (140 mM NaCl, 5 mM KCl; 1 mM CaCl2, 1 mM MgCl2, 5 mM glucose and 10 mM HEPES, pH 7.4) and suspended in buffer C (20 mM Bis-Tris, 5 mM dithioerythritol, 2 mM EGTA and 50 mM sodium acetate, pH 6.5) containing a protease inhibitor (50 μM phenyl-methyl-sulfonyl-fluoride, 5 μM pepstatin A, 40 μM leupeptin, 20 μM aprotinin or 2 mM benzamidine) and then the cells were disrupted using polytron and sonicator and subjected to ultracentrifugation (4° C., 100,000×g, 60 minutes) to give a soluble fraction.
2) The thus obtained soluble fraction was applied to a column of 1.6×10 cm packed with Q Sepharose which had been equilibrated with buffer C. Next, the column was washed with 300 ml of buffer C to remove non-absorbed protein. Phosphodiesterase was eluted with 200 ml of buffer C having 0.05 to 1.25 M linear gradient of sodium acetate to collect 40 fractions each containing 5.0 ml eluate. Each fraction was checked for cAMP- and cGMP-metabolizing phosphodiesterase activities. Fractions having no cGMP- but cAMP-metabolizing activity and showing disappearance of the metabolizing activity by 10 μM rolipram (a type IV phosphodiesterase selective inhibitor) were collected to be used as a stock solution for the examination of type IV phosphodiesterase inhibition activity.
3) A predetermined amount of each compound to be tested was subjected to 10 minutes of reaction at 30° C. in a reaction mixture containing 40 mM Tris-HCl (pH 8.0), 5 mM MgCl2, 4 mM 2-mercaptoethanol, 0.3 μM cilostamide (an III type phosphodiesterase selective inhibitor), 1 μM cAMP, 10 nM ^3 H-cAMP and the type IV phosphodiesterase stock solution. The reaction solution was boiled at 90° C. for 1 minute, cooled in an ice bath, mixed with 1 unit of 5'-nucleotidase and then subjected to 10 minutes of reaction at 30° C., and the reaction was stopped by the addition of 1 ml of methanol. The reaction solution was passed through a Dowex 1×8 column to adsorb un-hydrolyzed material and then the radioactivity was measured.
4) Concentration of each compound to be tested which inhibits 50% of the metabolic activity of type IV phosphodiesterase was calculated and expressed as IC50. Test results: Results of the measurement of the activity of the compounds of the present invention to inhibit type IV PDE are shown in Tables 1 and 2, together with the results of the compounds illustratively disclosed in the aforementioned U.S. Patent and similar comparative compounds which were separately synthesized.

[2] = system: I, II, III and V type phosphodiesterase isozymes; assay: Activity to inhibit various phosphodiesterase isozymes (selectivity for type IV); type: biochemical, rat (types I, III); human (type V); settings: IC50 ratio vs types I
Description: [A] In order to evaluate selectivity of the compounds of the present invention for type IV phosphodiesterase, I, II, III and V type phosphodiesterase isozymes were purified in the following manner.
1) Solutions containing various phosphodiesterase (I, II and III types) isozymes were purified from rat heart muscle cells in the following manner. Under ether anesthesia, Wistar rat was subjected to thoracotomy to excise the heart. After removing blood by perfusion with physiological saline supplemented with heparin (1 unit/ml), the heart was finely chopped with scissors.
2) Solutions containing various phosphodiesterase isozymes were obtained from the thus obtained soluble fraction in the following manner. […] Each fraction was checked for cAMP- and cGMP-metabolizing phosphodiesterase activities. […] These fractions were separately collected to be used as phosphodiesterase (types I, II and III) stock solutions for the examination of selectivity.
3) A solution containing type V phosphodiesterase was prepared from peripheral blood of a healthy person in the following manner. A 200 ml portion of physiological saline supplemented with dextran (3%) was added to 500 ml of heparinized peripheral blood and incubated at 37° C. for 40 minutes to effect precipitation of erythrocytes. The supernatant fluid after precipitation of erythrocytes was recovered and centrifuged once, and the resulting precipitate was suspended in buffer B (140 mM NaCl, 5 mM KCl, 5 mM glucose and 10 mM HEPES, pH 7.4), overlaid on a solution for density gradient centrifugation use (Ficoll solution) and then centrifuged at room temperature for 40 minutes at 450×g, thereby separating monocyte fraction and granulocyte fraction.
Each fraction was checked for cAMP- and cGMP-metabolizing phosphodiesterase activities. Fractions having only cGMP metabolizing activity were collected to be used as the type V phosphodiesterase stock solution.
[B] Inhibitory activities were measured using the thus obtained stock solutions of various phosphodiesterase isozymes.
After completion of the reaction, the reaction mixture was boiled at 90° C. for 1 minute, cooled in an ice bath, mixed with 1 unit of 5'-nucleotidase and then subjected to 10 minutes of reaction at 30° C., and the reaction was stopped by adding 1 ml of methanol. The reaction solution was passed through a Dowex 1×8 column to effect adsorption of un-metabolized cAMP or cGMP and then radioactivity in the eluate was measured using a scintillation counter.

[3] = Table 2, read-out: Type IV PDE Inhibition IC50
[4] = Table 1, read-out: Type IV PDE inhibition activity IC50

CCn1c(=O)nc(-c2cccc(C)c2)c2ccc(C)nc21 [Example 5, 1-Ethyl-7-methyl-4-(3-methylphenyl)-pyrido[2,3-d]pyrimidin-(1H)-one]
IC50 [1, 3]: 3.5 nM

CCn1c(=O)nc(-c2cccc([N+](=O)[O-])c2)c2ccc(C)nc21 [Example 37, 1-Ethyl-7-methyl-4-(3-nitrophenyl)-pyrido[2;3-d]pyrimidin-2(1H)-one]
IC50 [1, 4]: 4.75 nM

CCc1ccc2c(-c3cccc(Cl)c3)nc(=S)n(CC)c2n1 [Example 41, 4-(3-Chlorophenyl)-1,7-diethylpyrido[2,3-d]pyrimidin-2(1H)-thione]
IC50 [1, 4]: 0.85 nM

CC(C)n1c(=O)nc(-c2cccc(Cl)c2)c2cccnc21 [compound 6, 4-(3-chlorophenyl)-1-isopropylpyrido[2,3-d]pyrimidin-2(1H)-one, reference compound]
IC50 [1, 3]: 803 nM

CCn1c(=O)nc(-c2ccccc2Cl)c2cccnc21 [compound 1, 4-(2-chlorophenyl)-1-ethylpyrido[2,3-d]pyrimidin-2(1H)-one, reference compound]
IC50 [1, 3]: 2840 nM

CCn1c(=O)nc(-c2cccc(Cl)c2)c2ccc(C(C)SC(C)=O)nc21 (centres unmarked) [Example 40, 7-(1-acetylthioethyl)-4-(3-chlorophenyl)-1-ethylpyrido[2,3-d]pyrimidin-2(1H)-one]
IC50 [1, 4]: 5.79 nM

CC(C)n1c(=O)nc(-c2ccc(Cl)cc2)c2cccnc21 [compound 2, reference compound]
IC50 [1, 3]: > 3000 nM

CC(C)n1c(=O)nc(-c2ccc(Cl)c(Cl)c2)c2cccnc21 [compound 4, reference compound]
IC50 [1, 3]: > 3000 nM

CCn1c(=O)nc(-c2cccc(Cl)c2)c2cccnc21 [compound 7, 4-(3-chlorophenyl)-1-ethylpyrido[2,3-d]pyrimidin-2(1H)-one, reference compound]
IC50 [1, 3]: 308 nM

CCc1ccc2c(-c3cccc(Cl)c3)nc(=O)n(CC)c2n1 [Example 1, 4-(3-chlorophenyl)-1,7-diethylpyrido[2,3-d]pyrimidin-2(1H)-one]
IC50 [1, 3]: 0.81 nM | selectivity in inhibition activity against type IV PDE over the other types of PDE [2]: ≥ 1000 times

CCn1c(=O)nc(-c2cccc(C)c2)c2cccnc21 [compound 8, 4-(3-methylphenyl)-1-ethylpyrido[2,3-d]pyrimidin-2(1H)-one, reference compound]
IC50 [1, 3]: 612 nM

CCn1c(=O)nc(-c2cccc(Cl)c2)c2ccc(C3CC3)nc21 [Example 22, 4-(3-Chlorophenyl)-7-cyclopropyl-1-ethylpyrido[2,3-d]pyrimidin-2(1H)-one]
IC50 [1, 4]: 7.8 nM

CCn1c(=O)nc(-c2cccc(Br)c2)c2ccc(C)nc21 [Example 4, 4-(3-Bromophenyl)-1-ethyl-7-methylpyrido[2,3-d]pyrimidin-2(1H)-one]
IC50 [1, 3]: 1.45 nM | selectivity in inhibition activity against type IV PDE over the other types of PDE [2]: ≥ 1000 times

CCn1c(=O)nc(-c2ccc(Cl)cc2)c2cccnc21 [compound 3, 4-(4-chlorophenyl)-1-ethylpyrido[2,3-d]pyrimidin-2(1H)-one, reference compound]
IC50 [1, 3]: > 3000 nM

CCn1c(=O)nc(-c2cccc(Cl)c2)c2ccc(C=NO)nc21 [Example 36, 4-(3-chlorophenyl)-1-ethyl-7-hydroxyiminomethylpyrido[2,3-d]pyrimidin-2(1H)-one]
IC50 [1, 4]: 0.93 nM

CCn1c(=O)nc(-c2cccc(Cl)c2)c2ccc(C)nc21 [Example 3, 4-(3-Chlorophenyl)-1-ethyl-7-methylpyrido[2,3-d]pyrimidin-2(1H)-one]
IC50 [1, 3]: 2.32 nM | selectivity in inhibition activity against type IV PDE over the other types of PDE [2]: ≥ 1000 times

CCc1ccc2c(-c3cccc(Br)c3)nc(=O)n(CC)c2n1 [Example 2, 4-(3-Bromophenyl)-1,7-diethylpyrido[2,3-d)pyrimidin-2(1H)-one]
IC50 [1, 3]: 1.15 nM

CCc1ccc2c(C3CCCCC3)nc(=O)n(CC)c2n1 [Example 34, 4-Cyclohexyl-1,7-diethylpyrido[2,3-d]pyrimidin-2(1H)-one]
IC50 [1, 4]: 1.47 nM

Cc1cccc(-c2nc(=O)n(CC3CC3)c3nc(C)ccc23)c1 [Example 33, 1-Cyclopropylmethyl-7-methyl-4-(3-methylphenyl)pyrido[2,3-d]pyrimidin-2(1H)-one]
IC50 [1, 4]: 6.19 nM

CCn1c(=O)nc(-c2cccc(Cl)c2)c2ccc(C(C)O)nc21 (centres unmarked) [Example 19, 4-(3-chlorophenyl)-1-ethyl-7-(1-hydroxyethyl)pyrido[2,3-d]pyrimidin-2(1H)-one]
IC50 [1, 4]: 8.08 nM | selectivity in inhibition activity against type IV PDE over the other types of PDE [2]: ≥ 1000 times

CCc1ccc2c(-c3cccc(C)c3)nc(=O)n(CC)c2n1 [Example 6, 1,7-Diethyl-4-(3-methylphenyl)pyrido[2,3-d]pyrimidin-2(1H)-one]
IC50 [1, 3]: 3.7 nM

CCn1c(=O)nc(-c2ccc(Cl)c(Cl)c2)c2cccnc21 [compound 5, 4-(3,-4-dichlorophenyl)-1-ethylpyrido[2,3-d]pyrimidin-2(1H)-one, reference compound]
IC50 [1, 3]: > 3000 nM
